Data as given in patent US20230201217A1 (priority 2019, published 2023).
pIC50: −log10 of the molar value. “And” between values parts separate entries of the source, which are not always exact repeats. Equal entries are not always repeated.

What was measured:
male cynomolgus monkeys = test: Cardiovascular and respiratory radiotelemetry in conscious cynomolgus monkeys; assay type: in vivo, cynomolgus monkey
Method: Clinical observations were performed at approximately 4 and 24 hours post-dosing.

CD-1 mice = test: 14-day oral gavage GLP toxicity study in CD-1 mice; assay type: in vivo, mouse
Method: All test article-treated animals underwent up-titration of dosage levels prior to reaching the maximum daily dose, which was administered for 14 consecutive days. […] The dose volume was 10 mL/kg for all groups. Groups 1 and 4 each consisted of 25 animals/sex and Groups 2-3 each consisted of 20 animals for each sex. Following 14 days of dose administration, 15 mice/sex/toxicology group were euthanized; the remaining 5, (10 for the control and high dose group) mice/sex/toxicology group were euthanized following a 14-day nondosing (recovery) period. Following the final blood collection (study day 13), all toxicokinetic animals (from a satellite group of 18 animals/sex/dose level) were euthanized.
For toxicology assessment, all animals were observed twice daily for mortality and moribundity. Clinical observations were recorded daily, and detailed physical examinations were conducted weekly. Body weights and food consumption were recorded twice weekly. Body temperature was recorded prior to dosing and following dosing at the time that post-dosing clinical observations were conducted. Functional observational battery (FOB) data were recorded for all animals near the start of the treatment period, near the end of the treatment period, and near the end of the recovery period. Ophthalmic examinations were performed during pretest and near the end of the dosing period. At the primary necropsy 10 animals/sex/group and at the recovery necropsy 5 animals/sex/group, were selected for complete necropsies, clinical pathology assessment (hematology and serum chemistry), organ weight collection, and microscopic examination of a full list of tissues. At each termination interval, 5 animals/sex/group were assigned for neuropathology assessments that involved perfusion fixation, comprehensive sectioning of the brain and collection of selected peripheral nerves, and the employment of special stains used to detect subtle neuronal injury.

dogs = test: Single-dose oral toxicity; assay type: in vivo, dog
[1] = Toxicokinetics, 14-day study in cynomolgus monkeys; assay type: in vivo, cynomolgus monkey
Method: The animals received 400 mg/kg on Day 1 and thereafter 300 mg/kg/day. The relative concentrations of the metabolites and 18-MC were determined by the peak-heights by UPLC/MS/MS method. Major metabolites were identified as M5>>M2>>P2. Metabolite M4 was on the borderline to be considered a major metabolite. The parent 18-MC exposure was less than 3% of the total drug and metabolite exposure.
Assessments of neurobehavioral effects and general toxicity were based on mortality, functional observational battery (FOB) evaluations, clinical observations, body weight, and body temperature; ophthalmoscopic, electrocardiographic examinations; and anatomic and clinical pathology. The anatomical pathology evaluations included histopathology of a full list of tissues from all animals and a comprehensive evaluation of the central nervous system (including selected peripheral nerves) utilizing whole body perfusion and special stains. Bone marrow smears from all animals were evaluated microscopically. Complete differentials and myeloid-erythroid (ME) ratios were performed. Toxicokinetic assessment was conducted for the test article and metabolites.
Systemic exposure to […] was independent of sex. […] The following discussion is therefore based on data for males and females combined.

healthy volunteers = test: Phase 1 first-in-human study, safety and tolerability; assay type: in vivo; design: key to AE Urinary tract infection (subject A1): Study Drug related / AE Retro-orbital headache (subject A2): Study Drug related / AE Hot coffee burn in hand and right forearm (subject A3): Study Drug related / AE Dry cough (subject A4): Study Drug related / AE Body pain (subject A5): Study Drug related / AE Occipital and frontal headache (subject A6): Study Drug related / AE Nausea (subject A1): Study Drug related / AE Arterial Hypotension (subject A1): Study Drug related / AE Pain - submandibular lymph node (subject A1): Study Drug related: 1 Not related; 2 Possible; 3 Probable
Method: None discontinued the study.
Safety was monitored by reported adverse events, hematology, serum chemistries (including electrolytes, renal and liver function, urinalysis, ECG and vital signs. In addition, a neurological examination (mini-mental status exam) including assessment for abnormal eye movement, nystagmus, tremors, reflexes, upper and lower extremity strength, distal sensor perception, intention tremor, the Romberg test, excessive somnolence and mental status were performed.

[2] = system: adrenergic alpha-1 receptor; test: In vitro radio-ligand assay; assay type: binding; settings: 10 μM
Method: (§1) The binding potential of 18-MC with 64 neurotransmitter-related binding sites was evaluated (TABLE 2).

sodium site 2 channel = test: In vitro radio-ligand assay; assay type: binding; settings: 10 μM
Method: as §1

plasma protein [3] = test: Plasma protein binding; assay type: in vitro ADME, Dog
Excerpt: (§2) There is no information on the protein binding of any of the metabolites.

hERG potassium channel = target: T1, hERG potassium channel (Homo sapiens, UniProt Q12809); test: In vitro hERG channel inhibition assay, stably transfected CHO cells, voltage clamp; assay type: cell-based; settings: average of 3 recordings; read-out: IC50, hERG current inhibition
T1 construct: expressed in transfected cells; host or cells: CHO, stably transfected
T1 sequence (Q12809 whole entry): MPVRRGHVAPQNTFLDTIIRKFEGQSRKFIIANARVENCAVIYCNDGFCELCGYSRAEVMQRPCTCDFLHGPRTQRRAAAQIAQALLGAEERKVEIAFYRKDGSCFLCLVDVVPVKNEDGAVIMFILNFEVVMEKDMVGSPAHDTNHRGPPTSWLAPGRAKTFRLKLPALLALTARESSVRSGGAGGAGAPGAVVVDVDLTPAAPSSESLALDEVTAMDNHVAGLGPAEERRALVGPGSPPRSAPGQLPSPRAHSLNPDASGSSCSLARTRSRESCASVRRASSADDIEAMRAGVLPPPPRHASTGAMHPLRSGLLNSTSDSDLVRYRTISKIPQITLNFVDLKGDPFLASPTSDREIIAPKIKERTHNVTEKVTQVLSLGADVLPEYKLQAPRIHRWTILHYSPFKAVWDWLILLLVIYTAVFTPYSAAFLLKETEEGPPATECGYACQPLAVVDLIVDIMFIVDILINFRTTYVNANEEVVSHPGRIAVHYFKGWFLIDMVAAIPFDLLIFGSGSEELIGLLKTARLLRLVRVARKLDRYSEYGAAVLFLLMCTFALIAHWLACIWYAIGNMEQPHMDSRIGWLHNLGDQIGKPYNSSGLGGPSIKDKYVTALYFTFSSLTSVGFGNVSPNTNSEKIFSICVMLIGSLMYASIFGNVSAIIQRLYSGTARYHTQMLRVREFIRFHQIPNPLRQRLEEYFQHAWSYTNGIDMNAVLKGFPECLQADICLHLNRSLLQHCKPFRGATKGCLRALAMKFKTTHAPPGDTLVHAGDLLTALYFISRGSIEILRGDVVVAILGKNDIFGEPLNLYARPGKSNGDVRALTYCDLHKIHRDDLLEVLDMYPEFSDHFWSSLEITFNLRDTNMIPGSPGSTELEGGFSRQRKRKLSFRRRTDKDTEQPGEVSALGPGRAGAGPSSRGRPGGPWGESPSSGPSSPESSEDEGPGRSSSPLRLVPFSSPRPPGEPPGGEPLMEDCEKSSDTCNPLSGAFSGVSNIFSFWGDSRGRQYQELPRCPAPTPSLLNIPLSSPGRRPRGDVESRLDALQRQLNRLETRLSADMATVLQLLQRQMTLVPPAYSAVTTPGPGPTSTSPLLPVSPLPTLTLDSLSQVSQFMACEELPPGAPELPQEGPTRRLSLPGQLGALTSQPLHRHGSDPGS
Method: The potential for 18-MC to inhibit the hERG potassium channel was evaluated in a stably transfected Chinese Hamster Ovary (CHO) cell line expressing hERG mRNA (FIG. 12). […] Cells were voltage clamped at a holding potential of −80 mV. The hERG current was then activated by a depolarizing step ([…] for 300 ms) and repeated every 12 s. 18-MC was prepared from 10 mM methanol stock solutions. The hERG current inhibition was calculated from the average of 3 separate recordings.

plasma protein [4] = test: Plasma protein binding; assay type: in vitro ADME, Rat
Excerpt: as §2

[5] = system: 64 neurotransmitter-related binding sites; test: In vitro radio-ligand receptor and enzyme assays (panel); settings: 100 nM
Method: as §1

## COCCC1CC2CN3CCc4c([nH]c5ccccc45)C(C(=O)OC)(C2)C13.Cl (stereo not drawn) [18-MC HCl, 18-Methoxycoronaridine hydrochloride]
Male cynomolgus monkeys; 30, 90, or 270 mg/kg single dose
  cardiovascular parameters, body temperature, respiratory parameters: did not affect
Male cynomolgus monkeys; single dose, highest dose tested
  NOEL on the cardiovascular and respiratory systems: 270 mg/kg
CD-1 mice; 100 mg/kg/day group, Days −1 and 12
  mortality: two male mice in the 100 mg/kg/day group were found dead
CD-1 mice; female mice, 100 mg/kg/day
  HED of well tolerated dose: 8 mg/kg/day
CD-1 mice; females
  NOAEL: 100 mg/kg/day
CD-1 mice; male mice, 50 mg/kg/day
  HED of well tolerated dose: 4 mg/kg/day
CD-1 mice; males
  NOAEL: 50 mg/kg/day
CD-1 mice; up to 100 mg/kg/day, except non-adverse decreased body temperature
  neurobehavioral findings, Functional Observational Battery: no noted neurobehavioral findings
dogs
  dose at which emesis was seen: 100 mg/kg

## COCC[C@H]1CC2CN3CCc4c([nH]c5ccccc45)[C@](C(=O)OC)(C2)[C@H]13 [18-MC, 18-methoxycoronaridine]
[1]; Day 14, 300 mg/kg 18-MC HCl
  AUC: 1210 ng·h/mL
  Cmax: 144 ng/mL
[1]; Day 14, 400 mg/kg 1 day then 300 mg/kg/day, averaged across the sexes
  AUC(0-24): 144 µg·h/mL
[1]; all dose groups, Days 1 and 14
  time of median peak plasma concentration: ≤ 1 h
Healthy volunteers; 20 mg single dose, 4 mg twice
  serious adverse events: No serious adverse events occurred
Healthy volunteers; FIH study
  dose at which safe in healthy volunteers: up to 20 mg
Healthy volunteers; day noted 1
  AE Arterial Hypotension (subject A1): Severity: 1
  AE Arterial Hypotension (subject A1): Study Drug related: 2
  AE Nausea (subject A1): Severity: 1
  AE Nausea (subject A1): Study Drug related: 2
  AE Pain - submandibular lymph node (subject A1): Severity: 1
  AE Pain - submandibular lymph node (subject A1): Study Drug related: 2
  AE Retro-orbital headache (subject A2): Severity: 1
  AE Retro-orbital headache (subject A2): Study Drug related: 2
Healthy volunteers; day noted 2-30
  AE Urinary tract infection (subject A1): Severity: 2
  AE Urinary tract infection (subject A1): Study Drug related: 1
Healthy volunteers; day noted 4
  AE Occipital and frontal headache (subject A6): Severity: 2
  AE Occipital and frontal headache (subject A6): Study Drug related: 1
Healthy volunteers; day noted 4 (CRF entry error)
  AE Dry cough (subject A4): Severity: 1
  AE Dry cough (subject A4): Study Drug related: 3
Healthy volunteers; day noted 7
  AE Hot coffee burn in hand and right forearm (subject A3): Severity: 1
  AE Hot coffee burn in hand and right forearm (subject A3): Study Drug related: 1
Healthy volunteers; day noted 30
  AE Body pain (subject A5): Severity: 1
  AE Body pain (subject A5): Study Drug related: 1
[2]
  binding: binding was seen
Sodium site 2 channel
  binding: binding was seen
Plasma protein [3]; 200 ng/mL
  % Bound Mean ± SD: 92.1 ± 1.78%
Plasma protein [3]; 600 ng/mL
  % Bound Mean ± SD: 94.8 ± 1.42%
Plasma protein [3]; 5,000 ng/mL
  % Bound Mean ± SD: 93.2 ± 0.153%
Plasma protein [3]; average of 3 concentrations
  Average % Bound Mean ± SD: 93.4 ± 1.36%
hERG potassium channel
  pIC50: 5.84 and 5.80
Plasma protein [4]; 200 ng/mL
  % Bound Mean ± SD: 92.9 ± 0.351%
Plasma protein [4]; 600 ng/mL
  % Bound Mean ± SD: 94.9 ± 0.794%
Plasma protein [4]; 5,000 ng/mL
  % Bound Mean ± SD: 90.2 ± 0.153%
Plasma protein [4]; average of 3 concentrations
  Average % Bound Mean ± SD: 92.7 ± 2.36%
[5]
  binding activity: no binding activity
